Experiments:
[1] = Dissolution testing under non-sink conditions (USP XXIX method A enteric dissolution test); type: physicochemical; conditions: pH 6.8 buffer, read from FIG. 6
Protocol: Dissolution tests were performed with a dissolution apparatus (VK 7000 Dissolution Tester with a VK 8000 Autosampler). The testing was carried out according to a published method (USP XXIX method A enteric dissolution test); non-sink conditions were maintained throughout the testing using 1 L of final neutral media. The solution of 0.1N HCl (pH of 1.2) with a formulation present was stirred at 50 rpm for 2 hours and then the solution was converted to 0.2M Phosphate Buffer (pH of 6.8) and stirring continued up to 12 hours. At times of 60, 120, 125, 135, 150, 165, 180, 210, 240, 300, 360, 480, and 720 minutes, three×5 mL samples were removed and analyzed for soluble AKBA.

[2] = Solubility enhancement of AKBA by surfactants (UV-Visible); type: physicochemical; conditions: pH 6.8 phosphate buffer; 100 mg AKBA in 10 mL; shaken at least 72 hours at 37° C.; 0.20 micron filter
Protocol: Evaluation of Solubility Enhancement Capability of Surfactants for Solubilizing AKBA.
100 mg of AKBA was placed in a 10 mL cuvette, followed by the desired amount of surfactant to be studied to give the desired ratio of materials. Powder surfactants were measured directly into the cuvette in the amounts of 10 mg, 25 mg and 50 mg. Liquid surfactants were added by making a solution of 1.25 gm of surfactant in 250 ml of buffer, and then adding 2 ml, 5 ml, or 10 ml of the buffer solution to add 10 mg, 25 mg and 50 mg of the surfactant. A pH 6.8 phosphate buffer was added as needed to bring the volume up to 10 mL. After all material was added to the cuvette, the cuvette was sealed, sonicated for 2 hours on two separate occasions and then shaken for at least 72 hours at 37° C. The resulting material was filtered through a 0.20 micron filter and analyzed by UV-Visible spectroscopy to determine the AKBA content.

[3] = Solubility enhancement of AKBA by polymer carriers (thermal binders) (UV-Visible); type: physicochemical; conditions: pH 6.8 phosphate buffer; 20 mg AKBA in 10 mL; shaken at least 72 hours at 37° C.; 0.45 micron filter
Protocol: Evaluation of Solubility Enhancement Capability of Polymer Carriers (Thermal Binders) for Solubilizing AKBA.
20 mg of AKBA was placed in a 10 mL cuvette, followed by the desired amount of polymer carriers to be studied to give the desired ratio of materials. A pH 6.8 phosphate buffer was added as needed to bring the volume up to 10 mL. After all material was added to the cuvette, the cuvette was sealed, sonicated for 2 hours on two separate occasions and then shaken for at least 72 hours at 37° C. The resulting material was filtered through a 0.45 micron filter and analyzed by UV-Visible spectroscopy to determine the AKBA content.

[4] = Bioavailability (pharmacokinetic) study of AKBA formulations, oral gavage; type: in vivo, Sprague-Dawley rats; conditions: rat, dose equivalent to 50 mg/kg AKBA, * statistically significant
Protocol: A study was performed to evaluate the pharmacokinetic parameters of AKBA compositions. For the study, adult male Sprague-Dawley rats (275-300 grams, 63-67 days) were caged individually and maintained on a normal rodent chow diet with free access to water. Rats were randomly divided into groups of 4 rats with each group receiving one formulation. Prior to dosing, each formulation was reconstituted in deionised water. The formulations were administered as a dose equivalent to 50 mg/kg AKBA. Each formulation was delivered by 1 mL oral gavage via a pharyngeal tube such that each group of 4 rats received a different formulation. Each formulation was administered to dose AKBA at a concentration of 15 mg/l mL to prevent spontaneous release through the pyloric sphincter (volumetric dose below 4 mL/kg body weight).
The administered formulations were: […]
The catheters of the rats were flushed daily with 300 μL of 50 U/mL heparinized normal saline. Blood samples of approximately 300 μL were collected from the jugular vein catheter at 0, 0.5, 1, 1.5, 2, 2.5, 3, 3.5, 4, 4.5, 5, 5.5, 6 and 8 hours after dosing using a 1 mL syringe and attached […] needle. Blood was slowly extracted into the needle through the catheter. The blood samples were placed into preheparinized 1.5 mL microcentrifuge tubes. Withdrawn blood was replaced with equal volumes of heparinized saline by injecting through the jugular vein catheter. The bioavailability of the API was then determined by monitoring the API levels in the blood over time.

[5] = Solubility enhancement of AKBA by combination of polymer carriers and surfactants (UV-Visible); type: physicochemical; conditions: pH 6.8 phosphate buffer; 20 mg AKBA in 10 mL; shaken at least 72 hours at 37° C.; 0.45 micron filter
Protocol: Evaluation of Solubility Enhancement Capability of the Combination of Polymer Carriers (Thermal Binders) and Surfactants for Solubilizing AKBA.
20 mg of AKBA was placed in a 10 mL cuvette, followed by the desired amount of polymer carriers and/or surfactants to be studied to give the desired ratio of materials. A pH 6.8 phosphate buffer was added as needed to bring the volume up to 10 mL. […] The resulting material was filtered through a 0.45 micron filter and analyzed by UV-Visible spectroscopy to determine the AKBA content.

CC(=O)O[C@@H]1CC[C@@]2(C)[C@@H](CC[C@]3(C)[C@@H]2C(=O)C=C2[C@@H]4[C@@H](C)[C@H](C)CC[C@]4(C)CC[C@]23C)[C@@]1(C)C(=O)O [AKBA, acetyl-11-keto-β-boswellic acid]
peak solubility [1]: about 2 μg/ml
AKBA solubility, mcg/mL Buffer (Material - Surfactants) [2]: 0.01 µg/mL
AKBA solubility, mcg/mL Buffer (Material - Polymer Carriers) [3]: 7.27 µg/mL
Average of AUC [4]: 0.71* ± 0.24 μg-hr/mL
Average of Cmax [4]: 0.35* ± 0.12 μg/mL
Average of Tmax [4]: 4.75* ± 1.55 hours
Average of t1/2 [4]: 2.30 ± 1.43 h
AKBA solubility, mcg/mL Buffer (Material - Combination of Surfactants and Polymer Carriers) [5]: 8.46 µg/mL
